Experimental data reported in US11053250B2, “Pyrrolo[1,2-b]pyridazine derivatives” (Gilead Sciences, Inc., priority 2018, dated 2021).

What was measured:
IRAK4 enzyme = IRAK4 enzyme (Homo sapiens (Human), UniProt Q9NWZ3); experiment: IRAK4 Biochemical Assay (TR-FRET/HTRF); settings: 0.75 nM IRAK4, 500 μM ATP, STK1 peptide
Experimental: IRAK4 enzyme (Carna Biosciences, Chuo-ku, Kobe, Japan) activity was measured by detecting phosphorylated peptide substrate formation using an antibody against the phosphorylated peptide substrate. This is a time-resolved fluorescence resonance energy transfer (TR-FRET) immunoassay, based on the STK1 KinEASE Assay (Cisbio, Bedford, Mass.). The assay was designed as a simple two-step, endpoint assay (a 5 μl enzyme reaction followed by 5 μl stop and detect Solution) performed in ProxiPlate-384 Plus plates (Perkin Elmer, Waltham, Mass.). Staurosporine, a non-selective kinase inhibitor was used as a positive control. Compounds diluted in DMSO were spotted into 384 well plates using a Labcyte® Echo 550 Liquid Handling System prior to addition of IRAK4 enzyme and peptide substrate. Reaction solutions were delivered using a Multi-Flo (Bio-Tek Instruments). The enzyme and peptide solution was incubated with compound for 15 minutes at room temp before the reaction was initiated by the addition of ATP. The standard 5 μl reaction mixture contained 500 μM ATP, 2 μM peptide (STK1 Peptide), 0.75 nM of IRAK4 in reaction buffer (50 mM HEPES, pH 7.0, 0.02% NaN3, 0.01% BSA, 0.1 mM Orthovanadate, 5 mM MgCl2, 0.025% NP-40, 1 mM DTT). After 120 min of incubation at room temperature, 5 μl of Stop and Detect Solution (1:100 Cryptate labeled anti-phosphorylated peptide antibody solution and 125 nM Tracer in a 50 mM HEPES pH 7.0 detection buffer containing sufficient EDTA) was added. The plate was then further incubated for 60 minutes at room temperature and read on Envision 2103 Multilabeled reader (PerkinElmer) with excitation/emission/FRET emission at 340 nm/615 nm/665 nm, respectively. Fluorescence intensities at 615 nm and 665 nm emission wavelengths were expressed as a ratio (665 nm/615 nm). Percentage of inhibition was calculated as below: % Inhibition=100×(RatioSample−Ratio0% Inhibition)/(Ratio100% Inhibition−Ratio0% Inhibition)
The 0% inhibition value comes from control wells lacking inhibitor. The 100% inhibition value comes from control wells containing a saturating amount of known inhibitor staurosporine.

TNFα = experiment: IRAK4 Monocyte TNFα Cell Based Assay; settings: cryopreserved human monocytes, LPS 50 pg/ml stimulation, TNFα by TR-FRET
Experimental: The cell suspension was then plated at a density of 5,000 cells/well onto black 384 well Greiner clear bottom plates. Plates were pre-spotted with test compounds and serially diluted in DMSO where 40 nL/well were delivered using the Echo 550 acoustic liquid dispenser (Labcyte®) for a final DMSO concentration of 0.1%. Plated cells were treated with compound for 1 hour at 37° C. Cells were then stimulated with 50 pg/ml of LPS (Sigma) excluding outside columns of plate used for unstimulated cell control wells. Cells were incubated for an additional 4 hours at 37° C. Cells were then spun out of the media and 5 μl of sample were taken and analyzed for total TNFα content using the TR-FRET Human TNFα detection system (CisBio). This system utilizes two labeled antibodies (cryptate and XL665) that bind to two different epitopes of the TNFα molecule and produce FRET signal proportional to the concentration of TNFα in the sample. Detection antibodies are mixed 50:50 and 5 μL were dispensed into each well. Plates were covered with clear seals and incubated at room temp overnight. The following morning plates were read using an Envision 2103 Multilabeled reader (PerkinElmer) with excitation/emission/FRET emission at 340 nm/615 nm/665 nm, respectively. Fluorescence intensities at 615 nm and 665 nm emission wavelengths were expressed as a ratio (665 nm/615 nm). Percent of control was calculated as follows: % Control=100×(RatioSample−Ratio0% stimulation)/(Ratio100% Stimulation−Ratio0% stimulation) where unstimulated cells (0% stimulation) were the negative control and stimulated cells (100% stimulation) were used as the positive control.

Chain of IRAK4 enzyme (Q9NWZ3 whole entry): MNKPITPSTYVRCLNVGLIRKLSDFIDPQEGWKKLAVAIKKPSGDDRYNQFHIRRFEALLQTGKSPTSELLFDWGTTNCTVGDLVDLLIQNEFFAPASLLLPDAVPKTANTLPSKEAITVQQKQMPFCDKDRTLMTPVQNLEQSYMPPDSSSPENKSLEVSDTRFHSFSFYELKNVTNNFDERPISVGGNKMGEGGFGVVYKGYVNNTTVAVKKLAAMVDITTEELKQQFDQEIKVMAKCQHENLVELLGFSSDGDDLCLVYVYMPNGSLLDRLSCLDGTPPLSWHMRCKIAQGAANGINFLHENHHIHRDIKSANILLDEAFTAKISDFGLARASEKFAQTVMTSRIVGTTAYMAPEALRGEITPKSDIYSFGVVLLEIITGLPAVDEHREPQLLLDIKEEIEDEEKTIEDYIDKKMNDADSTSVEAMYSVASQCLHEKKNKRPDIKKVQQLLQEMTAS

Structure (SMILES) | IC50 (IRAK4 enzyme) [nM] | EC50 (TNFα; Monocyte) [nM] | EC50 (TNFα) [nM]
CC(C)(O)[C@H](F)Cn1cc(-c2cnc(-c3ccc4cc(C#N)cnn34)cc2NC23CCC(O)(CC2)CC3)nn1 [Compound 25, (R)-7-(5-(1-(2-fluoro-3-hydroxy-3-methylbutyl)-1H-1,2,3-triazol-4-yl)-4-((4-hydroxybicyclo[2.2.2]octan-1-yl)amino)pyridin-2-yl)pyrrolo[1,2-b]pyridazine-3-carbonitrile] | < 1 | 3 | –
CNc1cc(-c2ccc3cc(C#N)cnn23)ncc1-c1cn(CCC(C)(C)O)nn1 [Compound 26, 7-(5-(1-(3-hydroxy-3-methylbutyl)-1H-1,2,3-triazol-4-yl)-4-(methylamino)pyridin-2-yl)pyrrolo[1,2-b]pyridazine-3-carbonitrile] | 2 | 79 | –
CNc1cc(-c2ccc3cc(C#N)cnn23)ncc1-c1cn(CC(F)F)nn1 [Compound 27, 7-(5-(1-(2,2-difluoroethyl)-1H-1,2,3-triazol-4-yl)-4-(methylamino)pyridin-2-yl)pyrrolo[1,2-b]pyridazine-3-carbonitrile] | 9 | 338 | –
CNc1cc(-c2ccc3cc(C#N)cnn23)ncc1-c1cn(CC(F)(F)C(C)(C)O)nn1 [Compound 28, 7-(5-(1-(2,2-difluoro-3-hydroxy-3-methylbutyl)-1H-1,2,3-triazol-4-yl)-4-(methylamino)pyridin-2-yl)pyrrolo[1,2-b]pyridazine-3-carbonitrile] | 3 | 94 | –
COC(=O)NC[C@H]1C[C@H](Nc2cc(-c3ccc4cc(C#N)cnn34)ncc2-c2cn(CC(F)(F)F)nn2)C1 [Compound 29, methyl (((1r,3r)-3-((2-(3-cyanopyrrolo[1,2-b]pyridazin-7-yl)-5-(1-(2,2,2-trifluoroethyl)-1H-1,2,3-triazol-4-yl)pyridin-4-yl)amino)cyclobutyl)methyl)carbamate] | < 1 | – | 77
COC(=O)NC[C@H]1C[C@H](Nc2cc(-c3ccc4cc(C#N)cnn34)ncc2-c2cn(CCC(C)(C)O)nn2)C1 [Compound 30, methyl (((1r,3r)-3-((2-(3-cyanopyrrolo[1,2-b]pyridazin-7-yl)-5-(1-(3-hydroxy-3-methylbutyl)-1H-1,2,3-triazol-4-yl)pyridin-4-yl)amino)cyclobutyl)methyl)carbamate] | < 1 | – | 4
CC(C)(O)[C@H](F)Cn1cc(-c2cnc(-c3ccc4cc(C#N)cnn34)cc2NC2COC2)nn1 [Compound 31, (R)-7-(5-(1-(2-fluoro-3-hydroxy-3-methylbutyl)-1H-1,2,3-triazol-4-yl)-4-(oxetan-3-ylamino)pyridin-2-yl)pyrrolo[1,2-b]pyridazine-3-carbonitrile] | < 1 | 23 | –
COC(=O)NC[C@H]1C[C@H](Nc2cc(-c3ccc4cc(C#N)cnn34)ncc2-c2cn(CC(F)F)nn2)C1 [Compound 32, methyl (((1r,3r)-3-((2-(3-cyanopyrrolo[1,2-b]pyridazin-7-yl)-5-(1-(2,2-difluoroethyl)-1H-1,2,3-triazol-4-yl)pyridin-4-yl)amino)cyclobutyl)methyl)carbamate] | < 1 | – | 38
COC(=O)NC[C@H]1C[C@H](Nc2cc(-c3ccc4cc(C#N)cnn34)ncc2-c2cn(C)nn2)C1 [Compound 33, methyl (((1r,3r)-3-((2-(3-cyanopyrrolo[1,2-b]pyridazin-7-yl)-5-(1-methyl-1H-1,2,3-triazol-4-yl)pyridin-4-yl)amino)cyclobutyl)methyl)carbamate] | < 1 | – | 44
CC(C)(O)[C@H](F)Cn1cc(-c2cnc(-c3ccc4cc(C#N)cnn34)cc2NC23CCC(N4CCOCC4)(CC2)CC3)nn1 [Compound 34, (R)-7-(5-(1-(2-fluoro-3-hydroxy-3-methylbutyl)-1H-1,2,3-triazol-4-yl)-4-((4-morpholinobicyclo[2.2.2]octan-1-yl)amino)pyridin-2-yl)pyrrolo[1,2-b]pyridazine-3-carbonitrile] | < 1 | 6 | –
CC(C)(O)[C@H](F)Cn1cc(-c2cnc(-c3ccc4cc(C#N)cnn34)cc2NC23CCC(N4CCOC4=O)(CC2)CC3)nn1 [Compound 35, (R)-7-(5-(1-(2-fluoro-3-hydroxy-3-methylbutyl)-1H-1,2,3-triazol-4-yl)-4-((4-(2-oxooxazolidin-3-yl)bicyclo[2.2.2]octan-1-yl)amino)pyridin-2-yl)pyrrolo[1,2-b]pyridazine-3-carbonitrile] | < 1 | 3 | –
CNc1cc(-c2ccc3cc(C#N)cnn23)ncc1-c1cn(C)nn1 [Compound 36, 7-(5-(1-methyl-1H-1,2,3-triazol-4-yl)-4-(methylamino)pyridin-2-yl)pyrrolo[1,2-b]pyridazine-3-carbonitrile] | 14 | 324 | –
CNc1cc(-c2ccc3cc(C#N)cnn23)ncc1-c1cn(C[C@@H](F)C(C)(C)O)nn1 [Compound 37, (R)-7-(5-(1-(2-fluoro-3-hydroxy-3-methylbutyl)-1H-1,2,3-triazol-4-yl)-4-(methylamino)pyridin-2-yl)pyrrolo[1,2-b]pyridazine-3-carbonitrile] | < 1 | 28 | –
CC(C)(O)[C@H](F)Cn1cc(-c2cnc(-c3ccc4cc(C#N)cnn34)cc2N[C@H]2CC[C@H](c3nncs3)CC2)nn1 [Compound 38, 7-(4-(((1r,4R)-4-(1,3,4-thiadiazol-2-yl)cyclohexyl)amino)-5-(1-((R)-2-fluoro-3-hydroxy-3-methylbutyl)-1H-1,2,3-triazol-4-yl)pyridin-2-yl)pyrrolo[1,2-b]pyridazine-3-carbonitrile] | < 1 | – | 6
COC(=O)NC[C@H]1C[C@H](Nc2cc(-c3ccc4cc(C#N)cnn34)ncc2-c2cn(C[C@@H](F)C(C)(C)O)nn2)C1 [Compound 39, methyl (((1R,3r)-3-((2-(3-cyanopyrrolo[1,2-b]pyridazin-7-yl)-5-(1-((R)-2-fluoro-3-hydroxy-3-methylbutyl)-1H-1,2,3-triazol-4-yl)pyridin-4-yl)amino)cyclobutyl)methyl)carbamate] | < 1 | – | 6
COC(=O)N1CCC(n2cc(-c3cnc(-c4ccc5cc(C#N)cnn45)cc3NC(C)C)nn2)CC1 [Compound 40, methyl 4-(4-(6-(3-cyanopyrrolo[1,2-b]pyridazin-7-yl)-4-(isopropylamino)pyridin-3-yl)-1H-1,2,3-triazol-1-yl)piperidine-1-carboxylate] | 1 | 84 | –
CC(C)Nc1cc(-c2ccc3cc(C#N)cnn23)ncc1-c1cn(C2CCN(S(C)(=O)=O)CC2)nn1 [Compound 41, 7-(4-(isopropylamino)-5-(1-(1-(methylsulfonyl)piperidin-4-yl)-1H-1,2,3-triazol-4-yl)pyridin-2-yl)pyrrolo[1,2-b]pyridazine-3-carbonitrile] | 1 | 70 | –
CC(=O)N1CCC(n2cc(-c3cnc(-c4ccc5cc(C#N)cnn45)cc3NC(C)C)nn2)CC1 [Compound 42, 7-(5-(1-(1-acetylpiperidin-4-yl)-1H-1,2,3-triazol-4-yl)-4-(isopropylamino)pyridin-2-yl)pyrrolo[1,2-b]pyridazine-3-carbonitrile] | 1 | 33 | –
CC(C)Nc1cc(-c2ccc3cc(C#N)cnn23)ncc1-c1cn(C2CCNCC2)nn1 [Compound 43, 7-(4-(isopropylamino)-5-(1-(piperidin-4-yl)-1H-1,2,3-triazol-4-yl)pyridin-2-yl)pyrrolo[1,2-b]pyridazine-3-carbonitrile] | < 1 | 50 | –
